From paper PMC6348446 (Journal of Medicinal Chemistry, 2018)
Values joined by “and” are separate entries in the source; they are usually repeats but may differ in a detail not shown here. Identical values can stand only once.

Tests used:
[1] = biological target: T1, VCB:PROTAC:BRD9-BD ternary complex (Homo sapiens, UniProt P40337+Q9H8M2); assay: AlphaLISA proximity assay of ternary complex formation; type: binding; conditions: for AlphaLISA max intensity: biotinylated VCB 100 nM, His6-BRD9-bromodomain 100 nM
T1 construct: the bromodomain (residues 134–239) for BRD9 (Q9H8M2); made in house; host or cells: Escherichia coli BL21(DE3)
T1 sequence (P40337 54-213 limits assumed, one chain of several): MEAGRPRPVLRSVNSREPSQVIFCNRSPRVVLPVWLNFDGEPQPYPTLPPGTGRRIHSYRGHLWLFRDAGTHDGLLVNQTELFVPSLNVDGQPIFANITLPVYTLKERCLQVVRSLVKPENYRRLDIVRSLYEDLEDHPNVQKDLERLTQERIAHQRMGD
T1 sequence (Q15369 17-112 partner limits assumed, one chain of several): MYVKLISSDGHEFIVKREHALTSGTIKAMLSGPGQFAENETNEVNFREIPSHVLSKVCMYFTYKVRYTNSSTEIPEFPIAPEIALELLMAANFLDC
T1 sequence (Q15370 1-104 partner limits assumed, one chain of several): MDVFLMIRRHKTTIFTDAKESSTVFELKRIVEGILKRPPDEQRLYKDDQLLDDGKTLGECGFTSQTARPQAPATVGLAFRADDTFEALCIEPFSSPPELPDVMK
Experimental: All assays were performed at room temperature in 384-well plates with a final assay volume of 25 μL per well, as described previously.[5] All reagents were prepared as 5× stocks diluted in 50 mM HEPES, pH 7.5, 100 mM NaCl, 0.1% (w/v) bovine serum albumin, and 0.02% (w/v) 3-[(cholamidopropyl)dimethylammonio]-1-propanesulfonate (CHAPS). Plates were sealed by transparent film and briefly centrifuged at 100g between additions of reagents. Biotinylated VCB (100 nM final) and His6-BRD9-bromodomain (100 nM final) were incubated with a range of PROTAC concentrations (0.5–2000 nM; two-in-one serial dilution) for 1 h. Streptavidin-coated donor beads and nickel chelate acceptor beads (PerkinElmer) were added to a final concentration of 10 μg mL^–1, and plates were incubated for another hour. Plates were read on a PHERAstar FS (BMG Labtech) using an optic module with an excitation wavelength of 680 nm and emission wavelength of 615 nm. Intensity values were plotted against PROTAC concentration on a log10 scale using GraphPad Prism, version 7. To obtain biotinylated-VCB, protein was mixed with EZ-link NHS-PEG4-biotin (Thermo Scientific) in a 1:1 molar ratio and incubated at room temperature for 1 h. The reaction was quenched using 1 M Tris-HCl, pH 7.5, and unreacted NHS-biotin was removed with a PD-10 MiniTrap desalting column (GE Healthcare) equilibrated with 20 mM HEPES, pH 7.5, 150 mM NaCl, and 1 mM DTT.

[2] = biological target: T2, VCB (VHL-ElonginC-ElonginB complex) (Homo sapiens, UniProt P40337); assay: ITC, VCB titrated into PROTAC alone (binary); type: binding; conditions: 25 °C
T2 construct: His6 (cleaved yes); made in house; host or cells: Escherichia coli BL21(DE3)
T2 sequence (P40337 54-213 limits assumed): as the sequence (P40337 54-213 limits assumed, one chain of several) above
T2 sequence (Q15369 17-112 partner limits assumed): as the sequence (Q15369 17-112 partner limits assumed, one chain of several) above
T2 sequence (Q15370 1-104 partner limits assumed): as the sequence (Q15370 1-104 partner limits assumed, one chain of several) above

[3] = biological target: T3, VCB and BRD9-BD (ternary complex) (Homo sapiens, UniProt P40337+Q9H8M2); assay: ITC, VCB titrated into BRD9-BD:PROTAC binary complex (ternary); type: binding; conditions: 25 °C; for N (stoichiometry), VCB into BRD9-BD:PROTAC complex / ΔG, VCB into BRD9-BD:PROTAC complex / ΔH, VCB into BRD9-BD:PROTAC complex / –TΔS, VCB into BRD9-BD:PROTAC complex: ITC; for cooperativity α (ITC): binary versus ternary VCB binding
T3 construct: the bromodomain (residues 134–239) for BRD9 (Q9H8M2); His6 (cleaved yes); made in house; host or cells: Escherichia coli BL21(DE3)
T3 sequence (P40337 54-213 limits assumed, one chain of several): as the sequence (P40337 54-213 limits assumed, one chain of several) above
T3 sequence (Q15369 17-112 partner limits assumed, one chain of several): as the sequence (Q15369 17-112 partner limits assumed, one chain of several) above
T3 sequence (Q15370 1-104 partner limits assumed, one chain of several): as the sequence (Q15370 1-104 partner limits assumed, one chain of several) above

[4] = biological target: T4, VCB in the presence of BRD9-BD (Homo sapiens, UniProt P40337+Q9H8M2); assay: Fluorescence polarization, displacement of FAM-labeled HIF-1α peptide in the presence of BRD9-BD (ternary); type: binding; conditions: binary versus ternary
T4 construct: the bromodomain (residues 134–239) for BRD9 (Q9H8M2); His6 (cleaved yes); made in house; host or cells: Escherichia coli BL21(DE3)
T4 sequence (P40337 54-213 limits assumed, one chain of several): as the sequence (P40337 54-213 limits assumed, one chain of several) above
T4 sequence (Q15369 17-112 partner limits assumed, one chain of several): as the sequence (Q15369 17-112 partner limits assumed, one chain of several) above
T4 sequence (Q15370 1-104 partner limits assumed, one chain of several): as the sequence (Q15370 1-104 partner limits assumed, one chain of several) above

[5] = biological target: T5, BRD9 bromodomain (BRD9-BD) (Homo sapiens, UniProt Q9H8M2); assay: ITC, BRD9-BD titrated into PROTAC (binary); type: binding; conditions: 25 °C
T5 construct: the bromodomain (residues 134–239) for BRD9 (Q9H8M2); His6 (cleaved yes); made in house; host or cells: Escherichia coli BL21(DE3)
T5 sequence (Q9H8M2 134-239): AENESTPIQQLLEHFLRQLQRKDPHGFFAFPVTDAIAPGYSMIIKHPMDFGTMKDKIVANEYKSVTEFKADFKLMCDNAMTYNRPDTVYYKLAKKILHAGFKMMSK

[6] = Parallel Artificial Membrane Permeability Assay (PAMPA); type: in vitro ADME; conditions: for recovery at 5 h, 10 µM / PAMPA pH 7.4 HIGH/MED/LOW: pH 7.4; for PAMPA pH 7.4 HIGH/MED/LOW: permeability class
Experimental: Test compound (10 µM) was incubated in pre-warmed plasma at 37 ᵒC (that is buffered to pH 7.4 in ratio of 70:30 plasma to buffer). Immediately, at time zero, then at 30, 60, 120, and 180 min, a 50 µL aliquot of the incubation mixture was removed and mixed with 200 µL acetonitrile containing Donepezil as the internal standard (50 ng/ml) to stop the reaction. The samples were centrifuged to sediment the precipitated protein and the plates then sealed prior to UPLC-MS/MS analysis using a Xevo TQ-S Micro (Waters Corporation, USA).
XLfit (IDBS, UK) was used to calculate the exponential decay and consequently the rate constant (k) from the ratio of peak area of test compound to internal standard at each time point. The half-life was calculated for each test compound from the rate by using the […]
Parallel Artificial Membrane Permeability Assay (PAMPA)
PAMPA was performed using a 96-well pre-coated BD Gentest™ PAMPA plate (BD Biosciences, U.K.). Each well was divided into two chambers; donor and acceptor, separated by a lipid-oil-lipid tri-layer constructed in a porous filter. The effective permeability, Pe, of the compound was measured at pH 7.4. Stock solutions (5 mM) of the compound were prepared in DMSO. The compound was then further diluted to 10 µM in phosphate buffered […]
saline at pH 7.4. […] The compound […]
dissolved in phosphate buffered saline was then added to the donor side of the membrane and phosphate buffered saline without compound was added to the acceptor side. The PAMPA plate was left at room temperature for 5 h. After which time, an aliquot (100 µL) was then […]
removed from both acceptor and donor compartments and mixed with acetonitrile (80 µL) containing an internal standard. The samples were centrifuged (10 min, 5 °C, 3270 g) to sediment precipitated protein and sealed prior to UPLC-MS/MS analysis using a Xevo TQ-S Micro (Waters Corp, USA). Pe was calculated as shown in the below equation: […]
CA(t) = peak area of compound present in acceptor well at time t = 18000 s Cequi = [CD(t) x VD + CA(t) x VA] / (VD + VA)
VA = acceptor well volume
CD(t) = peak area of compound present in donor well at time t = 18000 s Recovery of compound from donor and acceptor wells was calculated and data was only accepted when recovery exceeded 70%.
Using a fast gradient, reverse-phase HPLC method to determine the chromatographic hydrophobicity index (CHI) was determined as described by Camurri and Zaramella (ref. 3) and Valko et al. (ref. 4). Briefly, by plotting the retention time of a set of reference

Row | AlphaLISA max intensity [1] | N (stoichiometry), VCB into PROTAC alone [2] | ΔG, VCB into PROTAC alone [2] | ΔH, VCB into PROTAC alone [2] | N (stoichiometry), VCB into BRD9-BD:PROTAC complex [3] | ΔG, VCB into BRD9-BD:PROTAC complex [3] | ΔH, VCB into BRD9-BD:PROTAC complex [3] | –TΔS, VCB into BRD9-BD:PROTAC complex [3] | cooperativity α (FP) [4] | N (stoichiometry), BRD9-BD into PROTAC [5] | ΔG, BRD9-BD into PROTAC [5] | –TΔS, VCB into PROTAC alone [2] | recovery at 5 h, 10 µM ([6]; PAMPA) | PAMPA pH 7.4 Pe ([6]; pH 7.4, 5 h) | PAMPA pH 7.4 HIGH/MED/LOW [6] | ΔH, BRD9-BD into PROTAC [5] | SMILES | further results
1 | 1.0 × 10^6 | 0.60 ± 0.01 | –10.2 ± 0.1 kcal/mol | –15.2 ± 0.1 kcal/mol | 0.75 ± 0.05 | –9.7 ± 0.1 kcal/mol | –6.4 ± 0.1 kcal/mol | –3.3 ± 0.1 kcal/mol | 0.24 | 0.753 ± 0.004 | –10.7 ± 0.1 kcal/mol | – | – | – | – | – | COc1cc(-c2cn(C)c(=O)c3cnccc23)cc(OC)c1CN1CCN(CCOCCOCC(=O)N[C@H](C(=O)N2C[C@H](O)C[C@H]2C(=O)NCc2ccc(-c3scnc3C)cc2)C(C)(C)C)CC1 [Compound 5, (2S,4R)-1-((S)-2-(2-(2-(2-(4-(2,6-Dimethoxy-4-(2-methyl-1-oxo-1,2-dihydro-2,7-naphthyridin-4-yl)benzyl)piperazin-1-yl)ethoxy)ethoxy)acetamido)-3,3-dimethylbutanoyl)-4-hydroxy-N-(4-(4-methylthiazol-5-yl)benzyl)pyrrolidine-2-carboxamide] | –
2 | 1.56 × 10^6 | 0.99 | –9.64 ± 0.03 kcal/mol | –6.56 ± 0.09 kcal/mol | 0.99 | –9.7 ± 0.2 kcal/mol | –6.4 ± 0.2 kcal/mol | –3.3 ± 0.2 kcal/mol | 1.17 | 1.00 | –11.0 ± 0.1 kcal/mol | –3.1 ± 0.1 kcal/mol | 94% | 0.01 nm/s | LOW and low cell permeability | –11.4 ± 0.1 kcal/mol | COc1cc(-c2cn(C)c(=O)c3cnccc23)cc(OC)c1CN1CCN(CCOCCOCCOc2cc(-c3scnc3C)ccc2CNC(=O)[C@@H]2C[C@@H](O)CN2C(=O)[C@@H](NC(=O)C2(F)CC2)C(C)(C)C)CC1 [Compound 26, (2S,4R)-N-(2-(2-(2-(2-(4-(2,6-Dimethoxy-4-(2-methyl-1-oxo-1,2-dihydro-2,7-naphthyridin-4-yl)benzyl)piperazin-1-yl)ethoxy)ethoxy)ethoxy)-4-(4-methylthiazol-5-yl)benzyl)-1-((S)-2-(1-fluorocyclopropane-1-carboxamido)-3,3-dimethylbutanoyl)-4-hydroxypyrrolidine-2-carboxamide] | increase in the maximum α intensity compared to VCB:5:BRD9-BD ([1]; AlphaLISA): 50%; cooperativity α (ITC) [3]: 1 and 1.05; –TΔS, BRD9-BD into PROTAC [5]: 0.44 ± 0.05 kcal/mol
3 | 1.47 × 10^6 | 0.73 | –10.4 ± 0.2 kcal/mol | –7.04 ± 0.08 kcal/mol | 0.73 | –10.33 ± 0.08 kcal/mol | –5.1 ± 0.1 kcal/mol | –5.3 ± 0.1 kcal/mol | 1.00 | 0.77 | –11.35 ± 0.05 kcal/mol | –3.4 ± 0.1 kcal/mol | – | 0.01 nm/s | – | –12.8 ± 0.1 kcal/mol | COc1cc(-c2cn(C)c(=O)c3cnccc23)cc(OC)c1CN1CCN(CCCCCOc2cc(-c3scnc3C)ccc2CNC(=O)[C@@H]2C[C@@H](O)CN2C(=O)[C@@H](NC(=O)C2(F)CC2)C(C)(C)C)CC1 [Compound 51, (2S,4R)-N-(2-((5-(4-(2,6-Dimethoxy-4-(2-methyl-1-oxo-1,2-dihydro-2,7-naphthyridin-4-yl)benzyl)piperazin-1-yl)pentyl)oxy)-4-(4-methylthiazol-5-yl)benzyl)-1-((S)-2-(1-fluorocyclopropane-1-carboxamido)-3,3-dimethylbutanoyl)-4-hydroxypyrrolidine-2-carboxamide] | cooperativity α (ITC) ([3]; listed as VZ185): 0.97 and 0.96; PAMPA pH 7.4 HIGH/MED/LOW ([6]; listed as VZ185): LOW and low cell permeability
4 | – | – | – | – | – | – | – | – | – | – | – | – | 87% | – | LOW | – | COc1cc(-c2cn(C)c(=O)c3cnccc23)cc(OC)c1CN1CCN(CCCCCOc2cc(-c3scnc3C)ccc2CNC(=O)[C@@H]2C[C@H](O)CN2C(=O)[C@@H](NC(=O)C2(F)CC2)C(C)(C)C)CC1 [cisVZ185] | Papp at 5 h, 10 µM ([6]; PAMPA, pH 7.4, 5 h, read-out: PAMPA pH 7.4 Pe): 0.036 ×10⁻⁶ cm/s
